# Values quoted from earlier work, collected in US8088935B2, “Compounds and methods for the treatment of asthma” (Ironwood Pharmaceuticals, Inc., priority 2003, dated 2012).
# Key:
# [1] = toxicity studies
smiles,measurement,setting,value
"O=C(O)c1cc(=O)c2c(OCC(O)COc3cccc4oc(C(=O)O)cc(=O)c34)cccc2o1 [Cromolyn, disodium cromoglycate]",biologic half-life,in vivo,46-99 minutes
same,Peak plasma levels occur (time),inhaled,≤ 15 min
same,acute toxicity,[1],impressively low order of acute toxicity
